Data from PMC3762675 (Chembiochem : a European journal of chemical biology, 2013).

Molecular target: p38 and MK2 (Homo sapiens, UniProt Q16539)
Format: binding
Settings: competitor 10 μM, LTR 2 500 nM, p38 400 nM, MK2 400 nM, UV 30 min

p38 and MK2, sequence (Q16539 whole entry): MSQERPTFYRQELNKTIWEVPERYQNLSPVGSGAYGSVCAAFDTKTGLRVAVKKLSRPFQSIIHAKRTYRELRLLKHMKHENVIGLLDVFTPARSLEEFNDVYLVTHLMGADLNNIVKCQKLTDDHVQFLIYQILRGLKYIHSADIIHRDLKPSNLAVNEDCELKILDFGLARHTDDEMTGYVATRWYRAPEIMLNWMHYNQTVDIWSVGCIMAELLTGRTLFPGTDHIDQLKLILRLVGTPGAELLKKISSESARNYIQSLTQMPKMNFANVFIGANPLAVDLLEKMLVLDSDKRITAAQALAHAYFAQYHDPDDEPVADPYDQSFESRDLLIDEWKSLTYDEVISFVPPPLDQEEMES
p38 and MK2, sequence (P49137 whole entry partner): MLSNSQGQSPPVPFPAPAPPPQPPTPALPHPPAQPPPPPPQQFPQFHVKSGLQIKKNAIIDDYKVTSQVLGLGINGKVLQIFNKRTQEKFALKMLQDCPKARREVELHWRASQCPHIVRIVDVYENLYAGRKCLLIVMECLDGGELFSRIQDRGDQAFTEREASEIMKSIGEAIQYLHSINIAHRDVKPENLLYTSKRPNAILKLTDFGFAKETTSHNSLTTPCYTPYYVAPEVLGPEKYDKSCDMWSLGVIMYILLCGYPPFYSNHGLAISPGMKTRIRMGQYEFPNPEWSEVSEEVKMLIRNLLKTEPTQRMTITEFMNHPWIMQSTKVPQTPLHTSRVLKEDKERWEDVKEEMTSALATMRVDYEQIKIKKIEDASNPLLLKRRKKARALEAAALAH

SMILES	blocking of labeling of p38 and MK2
Cc1nc(Nc2ncc(C(=O)Nc3c(C)cccc3Cl)s2)cc(N2CCN(CCO)CC2)n1 [dasatinib]	does not completely block labeling
C#Cc1cccc(Nc2ncnc3cc(OCCOC)c(OCCOC)cc23)c1 [erlotinib]	do not block labeling
